Where a SMILES comes first, the peptide text is derived from it. Bridges are numbered along the chain shown (N, C = ends). [ ]: non-standard residue; d: D form. ξ: configuration not given here. Trp(1-CH2COOH) = N[C@@H](Cc1cn(CC(=O)O)c2ccccc12)C(=O)O; Trp(βS-Me) = C[C@@H](c1c[nH]c2ccccc12)[C@H](N)C(=O)O; Phe(3,4,5-F3) = N[C@@H](Cc1cc(F)c(F)c(F)c1)C(=O)O; NMePhe(4-Me) = CN[C@@H](Cc1ccc(C)cc1)C(=O)O; NMePhe(4-F) = CN[C@@H](Cc1ccc(F)cc1)C(=O)O; Phe(4-F) = N[C@@H](Cc1ccc(F)cc1)C(=O)O; Bta = N[C@@H](Cc1csc2ccccc12)C(=O)O; Hyp = O=C(O)[C@@H]1C[C@@H](O)CN1; NMeF = CN[C@@H](Cc1ccccc1)C(=O)O; NMeNle = CCCC[C@H](NC)C(=O)O; Pip = O=C(O)[C@@H]1CCCCN1; dPip = O=C(O)[C@H]1CCCCN1; hSer = N[C@@H](CCO)C(=O)O; NMeA = CN[C@@H](C)C(=O)O; Orn = NCCC[C@H](N)C(=O)O; Dab = NCC[C@H](N)C(=O)O; Dap = NC[C@H](N)C(=O)O; ξC = NC(CS)C(=O)O
biological target: T1, Human PD-L1/PD-1 (Homo sapiens, UniProt Q9NZQ7); assay: HTRF Human PD-L1/PD-1 binding assay (PD-1-Ig/PD-L1-His); conditions: PD-L1-His 10 nM, PD-1-Ig 20 nM; class symbol; read-out: HTRF Human PD-L1/PD-1 Binding Assay IC50 Range
T1 construct: TVMV protease cleavage site (C); made in house; host or cells: HEK293T cells
Outline: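 HTRF read-out (665/620 nm ratio) after 30 min equilibration with Eu-cryptate anti-Ig mAb (1 nM) and APC anti-His mAb (20 nM). Peptides preincubated 15 min with PD-L1-His (10 nM), then PD-1-Ig (20 nM) added for 15 min.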

T1 sequence (Q9NZQ7 with tags, fused parts or gaps): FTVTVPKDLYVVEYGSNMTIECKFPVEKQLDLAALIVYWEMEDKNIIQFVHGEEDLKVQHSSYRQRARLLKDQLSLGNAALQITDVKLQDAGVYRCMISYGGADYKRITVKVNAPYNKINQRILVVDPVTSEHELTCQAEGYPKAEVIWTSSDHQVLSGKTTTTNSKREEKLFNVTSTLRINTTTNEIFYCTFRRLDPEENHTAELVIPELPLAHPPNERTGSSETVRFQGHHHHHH

Structure (SMILES)	IC50 [nM]
CCCC[C@H]1C(=O)N(C)[C@@H](CCCC)C(=O)N[C@@H](CCCNC(=N)N)C(=O)NC(C(=O)NCC(N)=O)CSCC(=O)N[C@@H](Cc2ccc(O)cc2)C(=O)N(C)[C@@H](C)C(=O)N[C@@H](CC(N)=O)C(=O)N2CCC[C@H]2C(=O)N[C@@H](CO)C(=O)N[C@@H](CCO)C(=O)N2C[C@H](O)C[C@H]2C(=O)N[C@@H](Cc2c[nH]c3ccccc23)C(=O)N[C@@H](CCO)C(=O)N[C@@H](Cc2c[nH]c3ccccc23)C(=O)N1C (stereo partly drawn) [Example 10052] ({CH2CO}-Y[NMeA]NPS[hSer][Hyp]W[hSer]W[NMeNle][NMeNle]R[ξC]G-NH2; thioether N-14)	1 to 9.9
CCCC[C@H]1C(=O)N(C)[C@@H](CCCC)C(=O)N[C@@H](CCC(=O)O)C(=O)NC(C(=O)NCC(N)=O)CSCC(=O)N[C@@H](Cc2ccc(O)cc2)C(=O)N(C)[C@@H](C)C(=O)N[C@@H](CC(N)=O)C(=O)N2CCC[C@H]2C(=O)N[C@@H](Cc2c[nH]cn2)C(=O)N[C@@H](CC(N)=O)C(=O)N2CCC[C@H]2C(=O)N[C@@H](Cc2c[nH]c3ccccc23)C(=O)N[C@@H](CCN)C(=O)N[C@@H](Cc2c[nH]c3ccccc23)C(=O)N1C (stereo partly drawn) [Example 9182] ({CH2CO}-Y[NMeA]NPHNPW[Dab]W[NMeNle][NMeNle]E[ξC]G-NH2; thioether N-14)	1 to 9.9
CCCC[C@H]1C(=O)N2CCC[C@@H]2C(=O)N[C@@H](CC(=O)O)C(=O)N[C@@H](C(C)C)C(=O)N(C)[C@@H](Cc2ccc(C)cc2)C(=O)N[C@@H](CC(=O)O)C(=O)N2CCC[C@@H]2C(=O)N[C@@H](Cc2c[nH]c3ccccc23)C(=O)N[C@@H](Cc2ccc(O)cc2)C(=O)N[C@@H](CC(C)C)C(=O)N[C@H](C(=O)NCC(N)=O)CSCC(=O)N[C@@H](Cc2ccc(F)cc2)C(=O)N(C)[C@@H](Cc2ccccc2)C(=O)N1C [Example 10114] ({CH2CO}-[Phe(4-F)][NMeF][NMeNle][dP]DV[NMePhe(4-Me)]D[dP]WYLCG-NH2; thioether N-13)	100 to 990
CCCC[C@H]1C(=O)N(C)[C@@H](CCCC)C(=O)N[C@@H](CCC(=O)O)C(=O)N[C@H](C(=O)NCC(N)=O)CSCC(=O)N[C@@H](Cc2ccc(O)cc2)C(=O)N(C)[C@@H](C)C(=O)N[C@@H](CC(N)=O)C(=O)N2CCC[C@H]2C(=O)N[C@@H](CO)C(=O)N[C@@H](CCC(=O)O)C(=O)N2C[C@H](O)C[C@H]2C(=O)N[C@@H](Cc2c[nH]c3ccccc23)C(=O)N[C@@H](CCN)C(=O)N[C@@H](Cc2c[nH]c3ccccc23)C(=O)N1C [Example 5167] ({CH2CO}-Y[NMeA]NPSE[Hyp]W[Dab]W[NMeNle][NMeNle]ECG-NH2; thioether N-14)	1 to 9.9
CCCC[C@H]1C(=O)N2CCC[C@@H]2C(=O)N[C@@H](CN)C(=O)N[C@@H](C(C)C)C(=O)N(C)[C@@H](Cc2ccccc2)C(=O)N[C@@H](CC(=O)O)C(=O)N2CCCC[C@@H]2C(=O)N[C@@H](Cc2c[nH]c3ccccc23)C(=O)N[C@@H](Cc2ccc(O)cc2)C(=O)N[C@@H](CC(C)C)C(=O)N[C@H](C(=O)NCC(N)=O)CSCC(=O)N[C@@H](Cc2cc(F)c(F)c(F)c2)C(=O)N(C)[C@@H](Cc2ccc(F)cc2)C(=O)N1C [Example 10582] ({CH2CO}-[Phe(3,4,5-F3)][NMePhe(4-F)][NMeNle][dP][Dap]V[NMeF]D[dPip]WYLCG-NH2; thioether N-13)	1 to 9.9
CCCC[C@H]1C(=O)N(C)[C@@H](CCCC)C(=O)N[C@@H](CCC(=O)O)C(=O)N[C@H](C(=O)NCC(N)=O)CSCC(=O)N[C@@H](Cc2ccc(OC)cc2)C(=O)N(C)[C@@H](C)C(=O)N[C@@H](CC(N)=O)C(=O)N2CCC[C@H]2C(=O)N[C@@H](Cc2cnc[nH]2)C(=O)N[C@@H](CCC(=O)O)C(=O)N2C[C@H](O)C[C@H]2C(=O)N[C@@H](Cc2c[nH]c3ccccc23)C(=O)N[C@@H](CC(=O)O)C(=O)N[C@@H](Cc2c[nH]c3ccccc23)C(=O)N1C [Example 7124] ({CH2CO}-Y(Me)[NMeA]NPHE[Hyp]WDW[NMeNle][NMeNle]ECG-NH2; thioether N-14)	10 to 99.9
CCCC[C@H]1C(=O)N(C)[C@@H](CCCC)C(=O)N[C@@H](CCC(=O)O)C(=O)N[C@H](C(=O)NCC(N)=O)CSCC(=O)N[C@@H](Cc2ccc(O)cc2)C(=O)N(C)[C@@H](C)C(=O)N[C@@H](CC(=O)O)C(=O)N2CCC[C@H]2C(=O)N[C@@H](Cc2c[nH]cn2)C(=O)N[C@@H](CCC(N)=O)C(=O)N2C[C@H](O)C[C@H]2C(=O)N[C@@H](Cc2c[nH]c3ccccc23)C(=O)N[C@@H](CCN)C(=O)N[C@@H](Cc2c[nH]c3ccccc23)C(=O)N1C [Example 5218] ({CH2CO}-Y[NMeA]DPHQ[Hyp]W[Dab]W[NMeNle][NMeNle]ECG-NH2; thioether N-14)	10 to 99.9
CCCC[C@H]1C(=O)N2CCC[C@@H]2C(=O)N[C@@H](CC(=O)O)C(=O)N[C@@H](C(C)C)C(=O)N(C)[C@@H](Cc2ccccc2)C(=O)N[C@@H](CC(=O)O)C(=O)N2CCCC[C@@H]2C(=O)N[C@@H](Cc2c[nH]c3ccccc23)C(=O)N[C@@H](Cc2ccc(O)cc2)C(=O)N[C@@H](CC(C)C)C(=O)N[C@H](C(=O)NCC(N)=O)CSCC(=O)N[C@@H](Cc2cc(F)c(F)c(F)c2)C(=O)N(C)[C@@H](Cc2ccc(F)cc2)C(=O)N1C [Example 10570] ({CH2CO}-[Phe(3,4,5-F3)][NMePhe(4-F)][NMeNle][dP]DV[NMeF]D[dPip]WYLCG-NH2; thioether N-13)	1 to 9.9

Next, values leading:

IC50 [nM]	Structure (SMILES)
10 to 99.9	CCCC[C@H]1C(=O)N(C)[C@@H](CCCC)C(=O)N[C@@H](CC(=O)O)C(=O)N[C@H](C(=O)NCC(N)=O)CSCC(=O)N[C@@H](Cc2ccc(O)cc2)C(=O)N(C)[C@@H](C)C(=O)N[C@@H](CC(N)=O)C(=O)N2CCC[C@H]2C(=O)N[C@@H](Cc2c[nH]cn2)C(=O)N[C@@H](CCC(=O)O)C(=O)N2C[C@H](O)C[C@H]2C(=O)N[C@@H](Cc2c[nH]c3ccccc23)C(=O)N[C@@H](CCN)C(=O)N[C@@H](Cc2cn(CC(=O)O)c3ccccc23)C(=O)N1C [Example 5181] ({CH2CO}-Y[NMeA]NPHE[Hyp]W[Dab][Trp(1-CH2COOH)][NMeNle][NMeNle]DCG-NH2; thioether N-14)
1 to 9.9	CCCC[C@H]1C(=O)N(C)[C@@H](CCCC)C(=O)N[C@@H](CCCN)C(=O)NC(C(=O)NCC(N)=O)CSCC(=O)N[C@@H](Cc2ccc(O)cc2)C(=O)N(C)[C@@H](C)C(=O)N[C@@H](CC(N)=O)C(=O)N2CCC[C@H]2C(=O)N[C@@H](CC(N)=O)C(=O)N[C@@H](CC(C)C)C(=O)N2C[C@H](O)C[C@H]2C(=O)N[C@@H](Cc2c[nH]c3ccccc23)C(=O)N[C@@H](CO)C(=O)N[C@@H](Cc2csc3ccccc23)C(=O)N1C (stereo partly drawn) [Example 9158] ({CH2CO}-Y[NMeA]NPNL[Hyp]WS[Bta][NMeNle][NMeNle][Orn][ξC]G-NH2; thioether N-14)
100 to 990	CCCC[C@H]1C(=O)N(C)[C@@H](CCCC)C(=O)N[C@@H](CCC(=O)O)C(=O)NC(C(=O)NCC(N)=O)CSCC(=O)N[C@@H](Cc2ccc(O)cc2)C(=O)N(C)[C@@H](C)C(=O)N[C@@H](CC(N)=O)C(=O)N2CCC[C@H]2C(=O)N[C@@H](CC(N)=O)C(=O)N[C@@H](CC(C)C)C(=O)N2CCC[C@H]2C(=O)N[C@@H](Cc2c[nH]c3ccccc23)C(=O)N[C@@H](CC(=O)O)C(=O)N[C@@H](Cc2c[nH]c3ccccc23)C(=O)N1C (stereo partly drawn) [Example 9172] ({CH2CO}-Y[NMeA]NPNLPWDW[NMeNle][NMeNle]E[ξC]G-NH2; thioether N-14)
1 to 9.9	CCCC[C@H]1C(=O)N(C)[C@@H](CCCC)C(=O)N[C@@H](C)C(=O)N[C@H](C(=O)NCC(N)=O)CSCC(=O)N[C@@H](Cc2ccc(O)cc2)C(=O)N2CCCC[C@H]2C(=O)N[C@@H](CC(=O)O)C(=O)N2CCC[C@H]2C(=O)N[C@@H](CN)C(=O)N[C@@H](CC(C)C)C(=O)N2C[C@H](O)C[C@H]2C(=O)N[C@@H](Cc2c[nH]c3ccccc23)C(=O)N[C@@H](CO)C(=O)N[C@@H](Cc2c[nH]c3ccccc23)C(=O)N1C [Example 1523] ({CH2CO}-Y[Pip]DP[Dap]L[Hyp]WSW[NMeNle][NMeNle]ACG-NH2; thioether N-14)
1000 to 10000	CCCC[C@H]1C(=O)N[C@@H](CC(N)=O)C(=O)N2CCC[C@H]2C(=O)N[C@@H](CO)C(=O)N[C@@H](CCO)C(=O)N2CCC[C@H]2C(=O)N[C@@H](Cc2c[nH]c3ccccc23)C(=O)N[C@@H](CCCN)C(=O)N[C@@H](Cc2c[nH]c3ccccc23)C(=O)N(C)[C@@H](C)C(=O)N(C)[C@@H](C)C(=O)N[C@@H](CCCNC(=N)N)C(=O)NC(C(=O)NCC(N)=O)CSCC(=O)N[C@@H](Cc2ccc(O)cc2)C(=O)N1C (stereo partly drawn) [Example 10198] ({CH2CO}-Y[NMeNle]NPS[hSer]PW[Orn]W[NMeA][NMeA]R[ξC]G-NH2; thioether N-14)

same assay, conditions: PD-L1-His 10 nM, PD-1-Ig 20 nM; read-out: HTRF Human PD-L1/PD-1 Binding Assay IC50

IC50 [nM]	Structure (SMILES)
15	CCCC[C@H]1C(=O)N(C)[C@@H](CCCC)C(=O)N[C@@H](CC(C)C)C(=O)N[C@H](C(=O)NCC(N)=O)CSCC(=O)N[C@@H](Cc2ccc(O)cc2)C(=O)N(C)[C@@H](C)C(=O)N[C@@H](CC(N)=O)C(=O)N2CCC[C@H]2C(=O)N[C@@H](CN)C(=O)N[C@@H](CC(C)C)C(=O)N2C[C@H](O)C[C@H]2C(=O)N[C@@H]([C@@H](C)c2c[nH]c3ccccc23)C(=O)N[C@@H](CO)C(=O)N[C@@H](Cc2c[nH]c3ccccc23)C(=O)N1C [Example 10530] ({CH2CO}-Y[NMeA]NP[Dap]L[Hyp][Trp(βS-Me)]SW[NMeNle][NMeNle]LCG-NH2; thioether N-14)
10000	CCCC[C@H]1C(=O)N(C)CC(=O)N[C@@H](CC(=O)O)C(=O)NC(C(C)c2ccccc2)C(=O)N(C)[C@@H](Cc2ccccc2)C(=O)N[C@@H](Cc2ccc(O)cc2)C(=O)N(C)CC(=O)N[C@@H](Cc2c[nH]c3ccccc23)C(=O)N[C@@H](Cc2ccc(O)cc2)C(=O)N[C@@H](CC(C)C)C(=O)N[C@H](C(=O)NCC(N)=O)CSCC(=O)N[C@@H](Cc2ccccc2)C(=O)N(C)[C@@H](Cc2ccccc2)C(=O)N1C (single isomer, unassigned) [Example 3230-D]

Reference: patent US10538555B2, “Macrocyclic inhibitors of the PD-1/PD-L1 and CD80(B7-1)/PD-L1 protein/protein interactions” (BRISTOL-MYERS SQUIBB COMPANY, priority 2014, dated 2020)
